In US20230416287A1, “Chemical Compounds” (GLAXOSMITHKLINE INTELLECTUAL PROPERTY DEVELOPMENT LIMITED, priority 2022, published 2023):
In brackets after ≈: the same amount, converted by molar mass.

Columns and labels:
[1] = CAD kinetic solubility; assay type: physicochemical; details: phosphate buffered saline (PBS), aqueous buffer, PBS pH 7.4, 1 hour equilibration at room temperature, from DMSO stock, HPLC-CAD
Method: Kinetic solubility was measured using Charged Aerosol Detector (CAD). The aqueous kinetic solubility at pH 7.4 was determined by measuring the concentration of solute in solution after precipitation from DMSO stock solution. The DMSO stock solution was diluted 20-fold with phosphate buffered saline (PBS) pH 7.4 and the solubility of the compound was measured after 1 hour equilibration at room temperature by HPLC-CAD.

[2] = target: human Nav1.8 (Homo sapiens, UniProt Q9Y5Y9); assay: Nav1.8 inhibitory activity, QPatch 48 HTX electrophysiology in HEK293-Nav1.8 cells; assay type: cell-based; parameters: expressed in transfected cells; host or cells: HEK293; details: half inactivation state voltage protocol (V1/2), HEK293 cells expressing human Nav1.8, read-out: [Nav1.8] pIC50 (converted)
Sequence of human Nav1.8 (Q9Y5Y9 whole entry): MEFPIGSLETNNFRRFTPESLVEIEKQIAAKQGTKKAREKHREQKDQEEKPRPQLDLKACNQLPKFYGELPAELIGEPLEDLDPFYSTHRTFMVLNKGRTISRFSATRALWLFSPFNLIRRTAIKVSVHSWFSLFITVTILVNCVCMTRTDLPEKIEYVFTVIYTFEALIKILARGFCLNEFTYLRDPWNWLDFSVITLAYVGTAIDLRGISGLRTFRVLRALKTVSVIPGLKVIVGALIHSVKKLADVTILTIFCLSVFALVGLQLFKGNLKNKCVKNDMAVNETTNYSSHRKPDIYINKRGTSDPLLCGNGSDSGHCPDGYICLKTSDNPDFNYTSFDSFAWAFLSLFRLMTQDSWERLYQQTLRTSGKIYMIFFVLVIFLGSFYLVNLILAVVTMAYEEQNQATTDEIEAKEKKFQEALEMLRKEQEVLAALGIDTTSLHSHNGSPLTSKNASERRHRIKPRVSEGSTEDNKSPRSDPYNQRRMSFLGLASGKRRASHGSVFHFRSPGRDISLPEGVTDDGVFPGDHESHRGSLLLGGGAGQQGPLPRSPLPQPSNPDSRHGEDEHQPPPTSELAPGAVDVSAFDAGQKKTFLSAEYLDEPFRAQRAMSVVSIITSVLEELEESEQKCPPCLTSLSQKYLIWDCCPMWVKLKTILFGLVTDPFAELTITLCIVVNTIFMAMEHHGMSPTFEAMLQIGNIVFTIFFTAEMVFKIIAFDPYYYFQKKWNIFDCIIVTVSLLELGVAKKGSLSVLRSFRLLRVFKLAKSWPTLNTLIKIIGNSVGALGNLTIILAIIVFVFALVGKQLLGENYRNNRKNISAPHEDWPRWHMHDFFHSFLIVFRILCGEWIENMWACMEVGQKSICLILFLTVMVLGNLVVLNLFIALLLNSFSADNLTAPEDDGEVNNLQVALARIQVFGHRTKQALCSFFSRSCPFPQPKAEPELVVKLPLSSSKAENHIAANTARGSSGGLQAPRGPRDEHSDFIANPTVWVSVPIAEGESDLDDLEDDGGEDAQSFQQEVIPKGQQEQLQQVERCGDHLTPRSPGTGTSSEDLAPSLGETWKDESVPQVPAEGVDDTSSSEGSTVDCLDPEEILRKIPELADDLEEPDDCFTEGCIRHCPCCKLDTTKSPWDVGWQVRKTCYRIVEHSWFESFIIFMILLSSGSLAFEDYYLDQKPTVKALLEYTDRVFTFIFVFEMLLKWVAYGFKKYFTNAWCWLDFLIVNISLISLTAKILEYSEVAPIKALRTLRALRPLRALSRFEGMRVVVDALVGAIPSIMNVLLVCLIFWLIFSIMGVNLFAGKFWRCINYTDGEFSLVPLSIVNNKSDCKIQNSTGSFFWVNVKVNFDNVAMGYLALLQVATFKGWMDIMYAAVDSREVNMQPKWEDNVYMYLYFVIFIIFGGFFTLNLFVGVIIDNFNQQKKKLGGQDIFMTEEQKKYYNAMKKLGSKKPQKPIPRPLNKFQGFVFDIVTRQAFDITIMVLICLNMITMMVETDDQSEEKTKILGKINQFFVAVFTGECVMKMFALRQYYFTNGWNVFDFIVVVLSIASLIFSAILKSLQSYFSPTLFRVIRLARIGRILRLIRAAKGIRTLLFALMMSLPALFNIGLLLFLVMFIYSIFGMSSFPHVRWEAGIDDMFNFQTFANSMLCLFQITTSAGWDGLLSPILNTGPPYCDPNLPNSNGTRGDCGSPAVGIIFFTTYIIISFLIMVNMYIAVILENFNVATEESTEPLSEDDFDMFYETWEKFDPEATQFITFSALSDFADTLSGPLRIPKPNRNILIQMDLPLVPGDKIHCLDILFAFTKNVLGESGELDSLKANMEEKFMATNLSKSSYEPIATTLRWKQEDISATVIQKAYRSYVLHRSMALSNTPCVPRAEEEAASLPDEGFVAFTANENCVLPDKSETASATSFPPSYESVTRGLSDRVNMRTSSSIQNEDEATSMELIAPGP
Method: Biological Assay 1: Nav1.8 Inhibitory Activity Human embryonic kidney 293 cells (HEK293) expressing human Nav1.8, human Navol and human TREK1 (HEK293-Nav1.8) were grown in T150 cell culture flasks at 37° C., 5% CO2 incubator. HEK293-Nav1.8 were passaged every 2-3 days when confluency reached 80-90% in T150 cell culture flasks.
Pharmacological assessment of compounds of the invention was performed using the QPatch 48 HTX electrophysiological platform. HEK293-Nav1.8 cells were prepared on the day of use by removing culture media, washing in DPBS, adding Accutase (2 mL to cover the surface, aspirate 1 mL then 1-2 minutes at 37° C.) followed by addition of CHO-SFM II to stop the enzyme digestion and in order to obtain a suspension of 3×10^6 cell/mL.
Compounds of the invention were prepared in an extracellular solution of the following composition: NaCl (145 mM), KCl (4 mM), CaCl2) (2 mM), MgCl (2 mM), HEPES (1 mM), Glucose (10 mM), pH 7.4 with NaOH Osmolality 300 mOsM/L. An intracellular solution of the following composition was used: CsF (115 mM), CsCl (20 mm), NaCl (5 mM), EGTA (10 mM), HEPES (10 mM), Sucrose (20 mM), pH 7.2 with CsOH Osmolality 310 mOsm/L.
Utilizing the voltage-clamp mode in the QPatch 48 HTX system a half inactivation state voltage protocol (V1/2) was used to determine pharmacological activity of compounds of the invention at Nav1.8 ion channels. A V1/2 protocol was utilized with the following voltage steps: a holding voltage of −100 mV was established followed by a 20 ms voltage step to 0 mV (P1), followed by an inactivating voltage step at −46 mV for 8 seconds, followed by a step to −100 mV for 20 ms, before a 20 ms step to 0 mV (P2), then returned to the holding voltage of −100 mV. This voltage protocol was repeated at a frequency of every 15 seconds, the current magnitude was quantified at the P2 step throughout the recording. Inhibition of the measured current amplitude with compounds of the invention was analyzed by fitting a 4-6 points dose-response curve allowing determination of the fifty percent inhibition concentration (IC50). P2 currents were normalized according to measurements made at baseline (Baseline, vehicle only), after compound (Input, at each test concentration), and after positive reference compound (FullResponse, to achieve complete block), fit to the following equation: […]
To assess current run-down over the course of the experiment vehicle-only wells were utilized and the normalized current with vehicle-only (n. IVEH) was determined. To correct the compound response for run-down, the currents were corrected according to the following formula:
[formula] • Compound inhibition was fitted to the following Hill Equation to estimate the half maximal inhibition concentration (IC50)
[formula] • where Y is the normalized run-down corrected inhibition relative to the vehicle control (equivalent to n. IRD_Correct), C the test compound concentration, IC50 the concentration of test compound to inhibit the sodium current by 50%, and h the Hill coefficient.

[3] = Rat IV/PO pharmacokinetic study; assay type: in vivo, Han Wistar rats
Method: An in vivo rat pharmacokinetic study was conducted to determine whether prodrug compounds of the invention are converted to the respective parent compound upon administration. The rat pharmacokinetic study was conducted with a crossover design on two study days with a one-day recovery period between each study day. Three male, dual catheterized (femoral vein and carotid artery) Han Wistar rats were used for the study. Each rat was also implanted with a gastric catheter for oral dose administration. Rats were dosed at 1 mg/kg by a 60-minute intravenous (IV) infusion (femoral vein cannula), then subsequently oral dosed at 2 mg/kg via the gastric cannula, with 48 hours between dosing sessions. Dose solutions of the compound of Example 4 were prepared in 20% Cavitron/5% DMSO/75% water (IV) and in 6% Cavitron/5% DMSO/89% water (PO) without pH adjustment. The dose solutions were filtered using a 0.22 μm filter. The pH of the final dosing solutions was 6.0.
During the intravenous study leg, blood samples were collected from the carotid artery catheter at target times of 15, 30, 60 (end of infusion), 65, 75, 90, 120, 240, 360, 480, 720, and 1440 minutes following the initiation of the intravenous infusion of the compound of Example 4. During the oral study leg, blood samples were collected prior to dosing and at target times of 15, 30, 60, 90, 120, 180, 240, 360, 480, 720, and 1440 minutes following oral administration. Blood samples (100 μL) were mixed with 100 μL phosphatase inhibitor, a 50 μL aliquot of the blood and inhibitor mixture was transferred to a non-heparinized tube and stored at approximately −80° C. until analyzed. The concentrations in the filtered dose solutions were confirmed by preparing stepwise dilutions first into 50% aqueous acetonitrile with 0.10% formic acid then into heparinized male Wistar Han blood: inhibitor to achieve determined nominal concentrations. Triplicate 50 μL aliquots were removed and were frozen and stored at approximately […] until analyzed by LC-MS/MS as described below. LC-MS/MS was used to quantify the compound of Example 4 and the corresponding parent compound of Example 4A in the biological samples generated in the above described in vivo study.
Samples were prepared by protein precipitation followed by LC-MS/MS analysis employing positive-mode ionization against a set of calibration standards for the compounds prepared in the same matrix. Pharmacokinetic parameters for the study were derived from the concentration versus time profiles. Key pharmacokinetic parameters such as AUC0-∞. (extrapolated area under the blood concentration-time curve), AUC0-t (area under the blood concentration-time curve to the last time point with quantifiable drug), Cmax (maximum concentration), Tmax (time Cmax is achieved), CL (systemic blood clearance), Vdss (steady-state volume of distribution), MRT (mean residence time), and t1/2 (half-life) were determined for the compound of Example 4. The key pharmacokinetic parameters such as AUC0-∞, AUC0-t, Cmax, Tmax, MRT, and t1/2 (half-life) were determined for the parent compound Example 4A. Descriptive statistical data of pharmacokinetic parameters were calculated, including the mean and standard deviation (SD) using Microsoft Excel. The data are shown below in Tables 5A and 5B. Data are reported as mean±SD (N=3).

[4] = male, Han Wistar, prodrug Example 4 in blood, intravenous infusion of Example 4, 1 mg/kg, mean ± SD, N=3
[5] = male, Han Wistar, prodrug Example 4 in blood, intravenous infusion, 1 mg/kg, mean ± SD, N=3

| SMILES | solubility at 1 h [1] [µg/mL] | IC50 [2] [nM] | also measured |
| --- | --- | --- | --- |
| Cc1cc(F)ccc1N1CN(c2ccc(=O)n(COP(=O)(O)O)c2C)C(=O)c2cc(C(F)(F)F)c(F)cc21 [Example 1, (5-(7-fluoro-1-(4-fluoro-2-methylphenyl)-4-oxo-6-(trifluoromethyl)-1,4-dihydroquinazolin-3(2H)-yl)-6-methyl-2-oxopyridin-1(2H)-yl)methyl dihydrogen phosphate] | ≥ 192 | 31.6 |  |
| Cc1cc(F)ccc1N1CN(c2ccc(=O)[nH]c2C)C(=O)c2cc(C(F)(F)F)c(F)cc21 [Example 1A, 7-fluoro-1-(4-fluoro-2-methylphenyl)-3-(2-methyl-6-oxo-1,6-dihydropyridin-3-yl)-6-(trifluoromethyl)-2,3-dihydroquinazolin-4(1H)-one] | 32 (≈ 71.2 µM) | 10 |  |
| Cc1cc(OC(F)(F)F)ccc1N1CN(c2cc(C)c(=O)n(COP(=O)(O)O)c2C)C(=O)c2cc(C(F)(F)F)cnc21 [Example 2, (3,6-dimethyl-5-(1-(2-methyl-4-(trifluoromethoxy)phenyl)-4-oxo-6-(trifluoromethyl)-1,4-dihydropyrido[2,3-d]pyrimidin-3(2H)-yl)-2-oxopyridin-1(2H)-yl)methyl dihydrogen phosphate] | ≥ 217 | 501 |  |
| Cc1cc(OC(F)(F)F)ccc1N1CN(c2cc(C)c(=O)[nH]c2C)C(=O)c2cc(C(F)(F)F)cnc21 [Example 2A, 3-(2,5-dimethyl-6-oxo-1,6-dihydropyridin-3-yl)-1-(2-methyl-4-(trifluoromethoxy)phenyl)-6-(trifluoromethyl)-2,3-dihydropyrido[2,3-d]pyrimidin-4(1H)-one] | 56 (≈ 109 µM) | 20 |  |
| Cc1c(N2CN(c3ccc(=O)n(COP(=O)(O)O)c3C)C(=O)c3cc(C(F)(F)F)ncc32)ccc(F)c1F [Example 3, (5-(1-(3,4-Difluoro-2-methylphenyl)-4-oxo-6-(trifluoromethyl)-1,4-dihydropyrido[3,4-d]pyrimidin-3(2H)-yl)-6-methyl-2-oxopyridin-1(2H)-yl)methyl dihydrogen phosphate] | 224 | 1260 |  |
| Cc1[nH]c(=O)ccc1N1CN(c2ccc(F)c(F)c2C)c2cnc(C(F)(F)F)cc2C1=O [Example 3A, 1-(3,4-difluoro-2-methylphenyl)-3-(2-methyl-6-oxo-1,6-dihydropyridin-3-yl)-6-(trifluoromethyl)-2,3-dihydropyrido[3,4-d]pyrimidin-4(1H)-one] | ≥ 210 | 100 |  |
| Cc1c(N2CN(c3ccc(=O)n(COP(=O)(O)O)c3C)C(=O)c3cc(F)c(Cl)cc32)ccc(F)c1F [Example 4, (5-(7-chloro-1-(3,4-difluoro-2-methylphenyl)-6-fluoro-4-oxo-1,4-dihydroquinazolin-3(2H)-yl)-6-methyl-2-oxopyridin-1(2H)-yl)methyl dihydrogen phosphate] | 157 | 31.6 | Vd ([3]; male, Han Wistar, blood, prodrug Example 4, intravenous infusion, 1 mg/kg, mean ± SD, N=3, read-out: Vdss): 0.687 ± 0.284 L/kg; Cmax ([3]; male, Han Wistar, prodrug Example 4 in blood, 60-minute intravenous infusion of Example 4, 1 mg/kg (Table 5A: 1.2 ± 0.1 mg/kg), mean ± SD, N=3): 238 ± 45 ng/mL; MRT [3, 4]: 6 ± 1.2 min; half-life [3, 4]: 40.2 ± 17.4 min; AUC(0-inf) [3, 5]: 197 ± 44 ng·h/mL; AUC(0-t) [3, 5]: 197 ± 284 ng·h/mL; clearance ([3]; male, Han Wistar, systemic blood clearance of prodrug Example 4, intravenous infusion, 1 mg/kg, mean ± SD, N=3): 110 ± 33 mL/min/kg; quantifiable concentrations following oral administration ([3]; prodrug Example 4 in blood, oral via gastric cannula, 2 mg/kg (Table 5A: 3.0 ± 0.0 mg/kg)): There were no |
| Cc1cc(F)ccc1N1CN(c2ccc(=O)n(COP(=O)(O)O)c2C)C(=O)c2cc(F)c(Cl)cc21 [Example 5, (5-(7-Chloro-6-fluoro-1-(4-fluoro-2-methylphenyl)-4-oxo-1,4-dihydroquinazolin-3(2H)-yl)-6-methyl-2-oxopyridin-1(2H)-yl)methyl dihydrogen phosphate] | 135 | 63.1 |  |
